Patent publication US8030323B2, “Pyrazole carboxamide derivatives, pharmaceutical compositions and its preparation” (Beijing Molecule Science and Technology Co., Ltd., priority 2006, dated 2011)

Target: T1, CBI receptor (Rattus norvegicus, UniProt P20272)
T1 construct: Preparation of CBI receptor membrane protein in cerebellum of rat; from tissue; host or cells: Wistar rat cerebellum membranes
Assay: Drug and CBI receptor competition binding experiment (rat cerebellum membrane protein)
Conditions: CBI receptor membrane protein from Wistar rat cerebellum; 30° C. for 1 hour; 1×10^−7 to 1×10^−11 mole concentration; read-out: antagonistic concentration of 50% (EC50) to CBI receptor
Method: 2.1 Preparation of CBI receptor membrane protein in cerebellum of rat: Wistar rat, 220-260 g, female and male being not limited, was killed by cutting head, its cerebellum was separated rapidly, weighted and added to a buffer of Tris-HCl in 10 times of volume (50 mM, Tris HCl, 5 mM MgCl2.6H2O, 1 mM EDTA, 0.5% (W/V) BSA, pH 7.4), homogenized by using homogenizer at 15000 rpm/min, 30 seconds once, 5 times in total. The homogenized liquid was centrifuged at 400×g for 10 minutes, the supernatant was centrifuged at 39000×g for 10 minutes, the precipitate was collected, re-suspended with Tris-HCl buffer of pH 7.4 in 10 times of volume of the original weight, and centrifuged at 39000×g for 10 minutes, the precipitate was washed with the same buffer, and centrifuged at 39000×g for 10 minutes, the resultant precipitate was washed with Tris-HCl. […]
100 μg of receptor protein, 20 μl of the compound in Example 1 in mole concentration of 1×10^−7, 1×10^−8, 1×10^−9, 1×10^−10 and 1×10^−11, respectively were added successively, reacted at 30° C. for 1 hour, the sample was spotted on glass fiber filtration membrane, filtrated under negative pressure, washed with cold buffer for 10 times, 2 ml per time, the filtration membrane was unwatered, dried over oven, and placed in scintillation bottle, added 1 ml scintillating liquid, the radioactivity strength was detected by LS6500 scintillation counter.

T1 sequence (P20272 whole entry): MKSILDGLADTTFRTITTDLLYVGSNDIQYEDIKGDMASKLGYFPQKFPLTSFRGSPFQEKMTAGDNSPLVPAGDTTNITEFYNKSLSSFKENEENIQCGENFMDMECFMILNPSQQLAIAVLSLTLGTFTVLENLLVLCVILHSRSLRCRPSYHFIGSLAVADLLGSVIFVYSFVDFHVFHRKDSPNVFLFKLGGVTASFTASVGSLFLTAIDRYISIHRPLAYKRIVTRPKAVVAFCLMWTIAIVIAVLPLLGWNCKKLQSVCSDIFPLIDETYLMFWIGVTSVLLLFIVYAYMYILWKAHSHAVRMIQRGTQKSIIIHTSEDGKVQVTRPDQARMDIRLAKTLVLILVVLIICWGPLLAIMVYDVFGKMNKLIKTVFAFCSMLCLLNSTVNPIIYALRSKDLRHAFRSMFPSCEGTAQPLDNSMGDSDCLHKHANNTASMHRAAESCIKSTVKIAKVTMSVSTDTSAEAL

`Cc1c(C(=O)NCc2cccnc2)nn(-c2ccc(Cl)cc2Cl)c1-c1ccc(Cl)cc1` [Example 1, N-(3-aminomethyl-pyridyl)-5-(4-chlorophenyl)-1-(2,4-dichlorophenyl)-4-methyl pyrazol-3-carboxamide] gave an EC50 of 0.13 nM.
